Measured values taken from article PMC9370761, “Anti-Inflammatory Effects of Auranamide and Patriscabratine—Mechanisms and In Silico Studies” (Molecules, 2022).

Assays:
NQO1 = NQO1 activity, Prochaska microtiter plate bioassay in Hepa-1c1c7 cells; format: cell-based, murine; conditions: 48 h
Method: The NRF2 activation is associated with increased NQO1 activity and an increased concentration of NRF2 and HO-1 in the nucleus. The protective role of NRF2/HO-1 in inflammatory diseases is well documented. Therefore, the NRF2 and HO-1 levels in nuclear extracts of the RAW 264.7 cells were determined using ELISA kits and expressed as fold changes with reference to the negative control. The effect of test compounds on NQO1 activity was determined using the reported method in murine hepatoma cells (Hepa-1c1c7). Dimethyl fumarate was used as a positive control, and 0.1% DMSO was used as a negative control. […] The CD value (concentration of test compound to double the NQO1 activity) of auranamide was 6.81 ± 0.18 μM, while for patriscabratine it was 4.28 ± 0.17 μM.
The “Prochaska” Microtiter Plate Bioassay was used to measure the NQO1 activity in hepatoma cells (Hepa-1c1c7). The cells (5 × 10^5 per well) were seeded and incubated with either auranamide or patriscabratine (10, 1, 0.1, 0.01, and 0.001 µM) or a reference drug (dimethyl fumarate, 10 μM) for 48 h. […] The protein concentration was determined using Bradford’s reagent. […] The optical density of the solution was determined at 610 nm using a Spectramax M3 microplate reader (Molecular Devices, LLC., San Jose, CA 95134, USA), and the values were normalized to the total protein content.

[1] = Metabolic stability in rat liver microsomes; format: in vitro ADME; conditions: 37 °C; for Clint: 0.5 µM; for half-life at 0.5 µM: read-out: Half-life (T1/2)
Method: (§1) Metabolic stability is an important parameter in the drug discovery pipeline. The metabolic stability of test compounds was evaluated in vitro using human, rat and mouse liver microsomes. The metabolic equation below determines the test compounds’ half-life (T1/2) and intrinsic clearance (Clint). Compound+ NADPH + H^++ O2 → oxidized analyte + NADP^++ H2O
(§2) The metabolic stability of the test compounds in human, rat, and mouse liver microsomes was determined using the method described in our previous work. Five microlitres of auranamide or patriscabratine (0.5 µM) were incubated in a reaction mixture at 37 °C for 0, 3, 6, 15, 30, 45 and 60 min. The concentration of test compounds in the reaction mixture was quantified using Agilent 1290 coupled with Q-TOF. The experiment was carried out in triplicate. The concentration versus time plot calculated the elimination rate constant (Kel). The below formulae were used to calculate the intrinsic clearance (Clint) and half-life (T1/2). The results are expressed as mean ± standard deviation from three experiments. Clint= Kel/0.5 ×52.5 T1/2= 0.693/Kel

NF-κB p65 = NF-κB p65 ELISA, nuclear extract of LPSEc-stimulated RAW 264.7 cells; format: cell-based, murine; conditions: 10 μM; LPSEc control 8.40 ± 0.09
Method: (§3) The anti-inflammatory activity of the test compounds was assessed in E. coli lipopolysaccharide (LPSEc)-induced inflammation in RAW 264.7 cells. Cells (5 × 10^5 cells/well) were incubated for 24 h in a 24-well plate. Then, the cells were challenged with LPSEc (100 ng/mL) for 4 h. The test compounds (10, 1, 0.1, 0.01 and 0.001 µM) or positive control (dimethyl fumarate, 10 μM) were then added and incubated for 24 h. The levels of NO production and pro-inflammatory cytokines (IL-1β, IL-6, IFN-γ and TNF-α) were determined using the supernatant solution. The cell pellet was used to measure the levels of COX-2, NF-κB p65, NRF2, and HO-1.
(§4) The COX-2 level was estimated in the cytoplasmic extract, whereas NF-κB p65, NRF-2 and HO-1 levels were estimated in nuclear extract. The nuclear extraction kit was used to separate the cytoplasm from the nucleus following the manufacturer’s instructions. The cell pellet was incubated in 100 µL of pre-extraction buffer on ice for 10 min, vortexed, and centrifuged. The supernatant cytoplasmic extract was collected. […] The protein concentration in the extracts was determined using Bradford’s reagent. […] The levels were measured in triplicate. The absorbance was measured using a Spectramax M3 microplate reader (Molecular Devices, LLC., San Jose, CA 95134, USA). […]

[2] = tested on: nitric oxide (NO) production; assay: NO production (Griess assay) in LPSEc-stimulated RAW264.7 cells; format: cell-based, murine; conditions: for reduced the NO production by: 10 μM, LPSEc-stimulated NO = 100%; for IC50: Mus musculus, 100 ng/mL LPSEc, RAW264.7, 24 h, read-out: IC50 (concentration required to reduce the NO production by 50%)
Method: The anti-inflammatory activity of the compounds was tested using Escherichia coli lipopolysaccharide (LPSEc) stimulated RAW264.7 cells. Nitric oxide (NO) is a classical marker used to measure inflammation. The Griess assay was used to determine NO production. The cells were stimulated with 100 ng/mL LPSEc and the NO produced was considered to be at 100%. The anti-inflammatory effect of the compounds was assessed by adding the compounds (10, 1, 0.1, 0.01, and 0.001 µM) to the LPSEc stimulated cells. The efficacy of the compounds was assessed by calculating their ability to reduce the LPSEc stimulated NO production. Dimethyl fumarate was used as a positive control, and 0.1% DMSO was used as a negative control. […] The anti-inflammatory effect was not observed at concentrations of less than 0.1 μM.
as §3
LPSEc activates inducible nitric oxide synthase (iNOS) in RAW 264.7 cells and produces nitric oxide (NO), an important mediator of inflammation. The NO content in the supernatant solution was measured using the Griess assay following the manufacturer’s instructions. The optical density (OD) was measured at 540 nm using a Spectramax M3 microplate reader (Molecular Devices, LLC., San Jose, CA 95134, USA). The formula provided below was used to calculate the percentage of NO production. Percent NO production=ODtreated cells− ODblank/ODuntreated cells− ODblank×100%
The activity of the test compounds was tested in triplicate on each plate. The results are presented as mean ± SD. Treatment was performed with either LPSEc alone or LPSEc and test compounds were designated as treated cells. RAW264.7 cells treated with vehicle (0.1% DMSO) were designated as untreated cells.

HO-1 = HO-1 ELISA, nuclear extract of RAW 264.7 cells; format: cell-based, murine; conditions: 10 μM, vs negative control
Method: (§5) The NRF2 activation is associated with increased NQO1 activity and an increased concentration of NRF2 and HO-1 in the nucleus. The protective role of NRF2/HO-1 in inflammatory diseases is well documented. Therefore, the NRF2 and HO-1 levels in nuclear extracts of the RAW 264.7 cells were determined using ELISA kits and expressed as fold changes with reference to the negative control. The effect of test compounds on NQO1 activity was determined using the reported method in murine hepatoma cells (Hepa-1c1c7). Dimethyl fumarate was used as a positive control, and 0.1% DMSO was used as a negative control. […]
(§6) The anti-inflammatory activity of the test compounds was assessed in E. coli lipopolysaccharide (LPSEc)-induced inflammation in RAW 264.7 cells. […] The levels of NO production and pro-inflammatory cytokines (IL-1β, IL-6, IFN-γ and TNF-α) were determined using the supernatant solution. […]
(§7) The COX-2 level was estimated in the cytoplasmic extract, whereas NF-κB p65, NRF-2 and HO-1 levels were estimated in nuclear extract. […] The protein concentration in the extracts was determined using Bradford’s reagent. […] The levels were measured in triplicate. The absorbance was measured using a Spectramax M3 microplate reader (Molecular Devices, LLC., San Jose, CA 95134, USA). […]

IL-6 = IL-6 ELISA in LPSEc challenged RAW 264.7 cells; format: cell-based, murine; conditions: 10 μM; vs untreated cells; LPSEc alone 6.91 ± 0.05
Method: as §3
(§8) Single-Analyte ELISArray kits were used to quantify the pro-inflammatory cytokines (IL-1β, IL-6, IFN-γ and TNF-α) in the cell supernatant following the manufacturer’s instructions. The standard protein (50 μL) or test sample solutions (50 μL) were added to a well (in duplicate) and incubated for 2 h at room temperature. The contents in the well were washed with wash buffer, and then 100 µL of biotinylated detection antibody solution was added and incubated for 1 h at room temperature. […] The optical density was measured at 450/570 nm using a Spectramax microplate reader M3 (Molecular Devices, LLC., San Jose, CA 95134, USA). The levels of pro-inflammatory cytokines (in pg/mL) in test samples were calculated using the standard curve. […]

NRF2 = NRF2 ELISA, nuclear extract of RAW 264.7 cells; format: cell-based, murine; conditions: 10 μM, vs negative control
Method: as §5, §6, §7

[3] = Metabolic stability in mouse liver microsomes; format: in vitro ADME; conditions: 37 °C; for Clint: 0.5 µM; for half-life at 0.5 µM: read-out: Half-life (T1/2)
Method: as §1, §2

RAW264.7 cells = assay: MTT cytotoxicity on RAW264.7 cells; format: cell-based, murine; conditions: MTT assay, 24 h, RAW 264.7 cells
Method: (§9) The cytotoxicity of the test compounds on RAW 264.7 and Hepa-1c1c7 cells was assessed using Vybrant® MTT Cell Proliferation Assay Kit following the manufacturer’s protocol. The cells were seeded at 5 × 10^5 cells/well and incubated for 24 h. Then, various concentrations (100 to 0.01 μM) of the test compounds were added and incubated for a further 24 h. The cell supernatant solution was replaced with the MTT assay solution and incubated for 4 h. The formazan crystals were dissolved in DMSO, and the optical density (OD) of the solution was measured at 570 nm (reference wavelength 630 nm) using Spectramax M3 microplate reader (Molecular Devices, LLC., San Jose, CA 95134, USA). The cell viability was calculated using the following formula, and the results are presented as mean ± SD. Percent cell viability %=ODtreated cells−ODblank/ODuntreated cells− ODblank×100%

Hepa-1c1c7 cells = assay: MTT cytotoxicity on Hepa-1c1c7 cells; format: cell-based, murine; conditions: MTT assay, 24 h
Method: as §9

IFN-γ = IFN-γ ELISA in LPSEc challenged RAW 264.7 cells; format: cell-based, murine; conditions: 10 μM; vs untreated cells; LPSEc alone 8.62 ± 0.26
Method: as §3, §8

IL-1β = IL-1β ELISA in LPSEc challenged RAW 264.7 cells; format: cell-based, murine; conditions: 10 μM; vs untreated cells; LPSEc alone 4.56 ± 0.13
Method: as §3, §8

[4] = Metabolic stability in human liver microsomes; format: in vitro ADME; conditions: 37 °C; for Clint: 0.5 µM; for half-life at 0.5 µM: read-out: Half-life (T1/2)
Method: as §1, §2

TNF-α = TNF-α ELISA in LPSEc challenged RAW 264.7 cells; format: cell-based, murine; conditions: 10 μM; vs untreated cells; LPSEc alone 4.33 ± 0.17
Method: as §3, §8

COX-2 = COX-2 ELISA, cytoplasmic extract of LPSEc-stimulated RAW 264.7 cells; format: cell-based, murine; conditions: 10 μM; LPSEc control 8.09 ± 0.08
Method: as §3, §4

Structure (SMILES) | CD value (concentration of test compound to double the NQO1 activity) (NQO1) | Clint [1] | half-life at 0.5 µM [1] | NF-κB p65 fold change (NF-κB p65) | reduced the NO production by [2] | IC50 [2] | HO-1 upregulation (HO-1) | IL-6 fold change (IL-6) | NRF2 upregulation (NRF2) | Clint [3] | half-life at 0.5 µM [3] | concentrations found to be cytotoxic (RAW264.7 cells) | concentrations found to be cytotoxic (Hepa-1c1c7 cells) | IFN-γ fold change (IFN-γ) | IL-1β fold change (IL-1β) | Clint [4] | half-life at 0.5 µM [4] | TNF-α fold change (TNF-α) | COX-2 fold change (COX-2)
CC(=O)NC(COC(=O)C(Cc1ccccc1)NC(=O)c1ccccc1)Cc1ccccc1 (centres unmarked) [Patriscabratine] | 4.28 ± 0.17 µM | 18.53 ± 0.56 mL/min/g liver | 3.93 min | 2.25 ± 0.27 fold changes | 30.84% | 1850 ± 930 nM | 1.83 ± 0.07 fold | 2.51 ± 0.38 fold change | 2.37 ± 0.06 fold | 18.64 ± 0.51 mL/min/g liver | 3.9 min | higher than 10 µM | higher than 10 µM | 4.15 ± 0.21 fold change | 1.96 ± 0.12 fold change | 13.27 ± 0.42 mL/min/g liver | 5.48 min | 2.53 ± 0.18 fold change | 2.17 ± 0.31 fold changes
O=C(N[C@@H](COC(=O)[C@H](Cc1ccccc1)NC(=O)c1ccccc1)Cc1ccccc1)c1ccccc1 [Auranamide] | 6.81 ± 0.18 µM | 17.22 ± 0.46 mL/min/g liver | 4.23 min | 2.13 ± 0.20 fold changes | 33.22% | 1220 ± 950 nM | 1.74 ± 0.09 fold | 2.85 ± 0.31 fold change | 2.66 ± 0.16 fold | 16.18 ± 0.43 mL/min/g liver | 4.5 min | higher than 10 µM | higher than 10 µM | 4.06 ± 0.19 fold change | 2.05 ± 0.16 fold change | 10.18 ± 0.35 mL/min/g liver | 7.14 min | 2.42 ± 0.24 fold change | 2.53 ± 0.25 fold changes
